Values after ≈ are worked out from the molar mass of the structure shown. Where two headings read alike, the source gives them in different places.
How the values were obtained:
[1] = Solubility in water, buffers and physiological fluids; type: physicochemical
Description: Tipifarnib is a methyl-quinolinone with a molecular formula of C27H22Cl2N4O and molecular weight of 489.40. […] These are safe and well tested excipients that are commonly used in marketed products. The film coatings of the tablets contain hypromellose, titanium dioxide, lactose monohydrate, polyethylene glycol, and triacetin. “Tipifarnib derivative” as used herein refers not only to R208176 but also to molecules closely structurally related to either tipifarnib or R208176 with similar pharmacologic activity against HDV; this term includes, for example and without limitation, compounds described in U.S. Pat. Nos. 6,169,096; 6,365,600; 6,420,387; 6,734,194; 6,743,805; 6,838,467; and 7,253,183.
R208176 is an off-white, non-hygroscopic and crystalline powder. It has a molecular weight of 501.4 Daltons and a molecular formula of C25H18Cl2N8.

[2] = cited from earlier work

Row | SMILES | solubility ([1]; 0.1 N HCl, simulated gastric fluid, read-out: solubility in 0.1 N HCl) [µg/mL] | solubility in 0.1 N NaOH ([1]; 0.1 N NaOH) | solubility ([1]; aqueous buffer, citrate-HCl buffer pH 4, read-out: solubility in citrate-HCl buffer pH 4) [µg/mL] | solubility in borate-HCl buffer pH 8 ([1]; borate-HCl buffer pH 8) | solubility in borate-KCl—NaOH buffer pH 10 ([1]; borate-KCl—NaOH buffer pH 10) | solubility in citrate-HCl buffer pH 2 ([1]; citrate-HCl buffer pH 2) | solubility in citrate-NaOH buffer pH 6 ([1]; citrate-NaOH buffer pH 6) | solubility ([1]; gastric fluid, simulated gastric fluid, read-out: solubility in gastric fluid) [µg/mL] | solubility in intestinal fluid ([1]; intestinal fluid) | solubility in water [1] | solubility in 0.1 N HCl ([1]; 0.1 N HCl) | solubility in citrate-HCl buffer ([1]; citrate-HCl buffer) | solubility in citrate-NaOH buffer ([1]; citrate-NaOH buffer) | solubility in phosphate buffers ([1]; phosphate buffers) | DLTs at 200 mg BID ([2]; 200 mg BID dose, dosed for 200 days) | patients stopping treatment due to adverse events (grade 3 or 4) ([2]; 13 cancer patients) | Dose limiting toxicities ([2]; cancer patients, continuous oral BID dosing) | MTD ([2]; cancer patients, orally BID, continuous dosing for up to 56 days) [mg] | Most common AEs ([2]; cancer patients)
1 | Cn1cncc1[C@@](N)(c1ccc(Cl)cc1)c1ccc2c(c1)c(-c1cccc(Cl)c1)nc1nnnn12 [R208176] | 10000 to 33000 (≈ 19.9 to 65.8 mM) | practically insoluble | 100 to 1000 (≈ 0.199 to 1.99 mM) | practically insoluble | practically insoluble | slightly soluble | practically insoluble | 10000 to 33000 (≈ 19.9 to 65.8 mM) | practically insoluble | practically insoluble | – | – | – | – | – | – | – | – | –
2 | Cn1cncc1[C@@](N)(c1ccc(Cl)cc1)c1ccc2c(c1)c(-c1cccc(Cl)c1)cc(=O)n2C [tipifarnib, (R)-6-[amino(4-chlorophenyl)(1-methyl-1H-imidazol-5-yl)methyl]-4-(3-chlorophenyl)-1-methyl-2(1H)-quinolinone] | – | – | – | – | – | – | – | – | – | insoluble | moderately soluble | slightly soluble | insoluble | insoluble | No DLTs were observed | 4 of 13 | granulocytopenia and neuropathy | 300 | gastrointestinal-related

From patent US20180338993A1, “TREATMENT OF HEPATITIS DELTA VIRUS INFECTION” (Eiger BioPharmaceuticals, Inc., priority 2014, published 2018)
